Four compounds from US7897611B2, “Pharmaceutical compositions and methods for relieving pain and treating central nervous system disorders” (Targacept, Inc., priority 2003, dated 2011) can be followed below.

One series concerns rats. The series is described as follows: Rat model of peripheral mononeuropathy (Bennett Model), paw pressure test. Particulars: for % Variation of nociceptive threshold, injured paw, vs vehicle-treated group / Nociceptive threshold, injured paw: Bennett model; for Nociceptive threshold, injured paw: paw pressure, mean ± SEM. Format: in vivo. On the procedure: A rat model of peripheral mononeuropathy (Bennett Model) was also used to evaluate the antihyperalgesic properties of the compounds.
Briefly, peripheral mononeuropathy was induced by loose ligation of the sciatic nerve in anaesthetized rats (pentobarbital; 45 mg/kg by intraperitoneal route). Fourteen days later, the nociceptive threshold was evaluated using a mechanical nociceptive stimulation (paw pressure test). An increasing pressure was applied onto the hindpaw of the animal until the nociceptive reaction (vocalization or paw withdrawal) was reached. The pain threshold (grams of contact pressure) was measured in hindpaws, both ipsilateral (injured side) and contralateral (non-injured side) to the site of sciatic ligation injury, at 10 minutes after the oral treatment for the compounds (1 mg/kg) and 60 minutes after dosing for morphine (60 mg/kg) and vehicle.
The results were expressed as a) the nociceptive threshold (mean±SEM) in grams of contact pressure for the injured paw and for the non-injured paw in the vehicle-treated group, and b) the percentage of variation of the nociceptive threshold calculated from the mean value of the vehicle-treated group.

In a further series the test system is mice. The experiment in a line: Hot plate test in mice (nociceptive reaction latency). To be noted: for Reaction Latency: hot plate 52°C, cutoff 30 seconds, mean ± SEM; for % variation of reaction latency: vs saline; for increase of nociceptive reaction latency vs vehicle-control: 60 mg/kg oral; for increase of nociceptive reaction latency vs vehicle controls: 1.0 mg/kg oral. Format: in vivo. On the procedure: The compounds of Example 1 (administered as the dihydrochloride salt of a 3:1 mixture of 3-(3-pyridinyl)-6-azabicyclo[3.2.1]oct-2-ene and 3-(3-pyridinyl)-6-azabicyclo[3.2.1]oct-3-ene) were evaluated in this Example using a “hot plate” test in mice. Briefly, the compounds of Example 1 (0.03, 0.1 and 0.3 mg free base/kg) were subcutaneously administered five minutes before the hot plate test. Morphine (10 mg/kg) was subcutaneously administered at 15 minutes before the test. Each mouse was placed on a metallic hot plate maintained at 52±0.2° C. The nociceptive reaction latency, characterized by licking reflex of the forepaws or by jumping off the hot plate, was recorded. The cutoff was set to 30 seconds.
The time course of the analgesic effect of the compounds of Example 1 (0.1, 0.3 and 1.0 mg free base/kg) was also assessed using the hot plate test following oral administration. Each dose of the compounds was administered to separate groups of animals at either 5, 15, 30 or 60 minutes prior to hot plate assessment. Morphine (60 mg/kg) and vehicle were also orally administered to separate groups of animals either 5, 15, 30, or 60 minutes before the test. Each mouse was placed on a metallic hot plate maintained at 52±0.2° C. The nociceptive reaction latency, characterized by licking reflex of the forepaws or by jumping off the hot plate, was recorded. The cutoff was set to 30 seconds.

The mark [1] stands for this setting: 60 mg/kg oral, 60 minutes after dosing.
Setting [2] is: hot plate, 15 minutes after dosing.
Where [3] appears, read: 1 mg/kg oral, 10 minutes after treatment.

As usually defined, the melting point is the temperature of the solid-liquid transition.

With `CN1CC[C@]23c4c5ccc(O)c4O[C@H]2[C@@H](O)C=C[C@H]3[C@H]1C5` [Morphine, reference compound], in the series on rats (setting [1]), the “% Variation of nociceptive threshold, injured paw, vs vehicle-treated group” value is 144%. Further, in the series with rats (setting [1]), the “Nociceptive threshold, injured paw” value is 268.0 ± 18.9 g. Besides, in the series on mice (10 mg/kg subcutaneous, 15 minutes before the test), the “Reaction Latency” value was 29.4 ± 0.5 s. Besides, the “% variation of reaction latency” value with mice (hot plate, 10 mg/kg subcutaneous, 15 minutes before the test) is reported as 163%. For the same compound, the “increase of nociceptive reaction latency vs vehicle-control” value worked out at 69% in the series on mice (setting [2]); 47% in the series on mice (hot plate, 30 minutes after dosing); 37% in the series on mice (hot plate, 60 minutes after dosing).

For the compound “3-(3-pyridinyl)-6-azabicyclo[3.2.1]oct-2-ene dihydrochloride and 3-(3-pyridinyl)-6-azabicyclo[3.2.1]oct-3-ene dihydrochloride [Example 1]”, in the series on rats (1 mg/kg oral), the “behavioral side-effects following dosing” value was “No behavioral side-effects were observed”. Further, the “% Variation of nociceptive threshold, injured paw, vs vehicle-treated group” value in the series with rats (setting [3]) was found to be 20%. The “Nociceptive threshold, injured paw” value in the series on rats (setting [3]) is reported as 132.0 ± 9.0 g. Further, the “Reaction Latency” value in the series with mice (0.03 mg free base/kg subcutaneous, five minutes before the test) stood at 19.3 ± 2.8 s; in the series on mice (0.1 mg free base/kg subcutaneous, five minutes before the test), 18.8 ± 2.2 s; with mice (0.3 mg free base/kg subcutaneous, five minutes before the test) it was 28.2 ± 1.8 s. Besides, the “% variation of reaction latency” value with mice (hot plate, 0.03 mg/kg subcutaneous, five minutes before the test) came out at 72%; with mice (hot plate, 0.1 mg/kg subcutaneous, five minutes before the test), 68%; in the series on mice (hot plate, 0.3 mg/kg subcutaneous, five minutes before the test), 152%. Moreover, the “increase of nociceptive reaction latency vs vehicle controls” value in the series on mice (hot plate, 5 minutes after dosing) was determined as 82%; with mice (setting [2]) it was 97%. Moreover, the “effect on nociceptive threshold vs vehicle-treated group” value with mice (hot plate, lower oral doses (0.1 and 0.3 mg free base/kg), data not shown) was “failed to modify the nociceptive threshold”.

`C1=C(c2cccnc2)C2CNCC1C2.Cl.Cl` (stereo not drawn): the melting point is 192 to 195 °C.

As to `C1=C(c2cccnc2)CC2CNCC1C2.Cl.Cl` (stereo not drawn), the melting point was 219 to 221 °C.
